The assay concerns the target T1, GST-RIPK1 (recombinant GST-RIPK1 kinase domain (residues 1-327)) (Homo sapiens, UniProt Q13546).
T1 construct: recombinant GST-RIPK1 kinase domain (residues 1-327) enzyme produced from baculovirus-transfected Sf21 cells; host or cells: baculovirus-transfected Sf21 insect cells
T1 sequence (Q13546 1-327): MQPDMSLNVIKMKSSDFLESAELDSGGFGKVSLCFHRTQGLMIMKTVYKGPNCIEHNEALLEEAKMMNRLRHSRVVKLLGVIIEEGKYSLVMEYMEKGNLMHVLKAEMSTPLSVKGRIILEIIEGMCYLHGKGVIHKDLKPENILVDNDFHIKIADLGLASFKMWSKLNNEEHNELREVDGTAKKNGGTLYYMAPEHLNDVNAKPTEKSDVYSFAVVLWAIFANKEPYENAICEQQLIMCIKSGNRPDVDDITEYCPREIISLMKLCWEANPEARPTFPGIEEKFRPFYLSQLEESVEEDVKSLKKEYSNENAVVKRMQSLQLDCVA
In words: RIPK1-ADP-Glo Enzymatic Assay. It is filed as biochemical. Particulars: ten-point titration, top compound concentration of 100000 nM; 25 nM GST-RIPK1, 300 μM ATP, 3 μM dephosphorylated-MBP; 30 min pre-incubation, 150 min reaction. The procedure, abridged:
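ADP-Glo luminescence quantifies ADP formed over 150 minutes by 25 nM Sf21-produced GST-RIPK1 (1-327) using 300 μM ATP and 3 μM dephosphorylated MBP, following 30-minute compound preincubation at 1% DMSO. Ten-point 1:3 series from 100000 nM gave EC50 via four-parameter sigmoidal regression.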
(ADP-Glo turns the ADP formed in a reaction into a luminescent signal.)

Consider 21 compounds from patent publication US20250154173A1 (Merck Sharp & Dohme LLC, priority 2023, published 2025).

Take `O=C1N2C(CC[C@H]2c2cnccn2)OC12CC(OCc1ccc3c(c1)CCO3)C2` (stereo partly drawn) [Example 18.92, (5′S)-3-[(2,3-dihydro-1-benzofuran-5-yl)methoxy]-5′-(pyrazin-2-yl)tetrahydro-3′H-spiro[cyclobutane-1,2′-pyrrolo[2,1-b][1,3]oxazol]-3′-one]: the EC50 turned out to be 243 nM.
Take `O=C1N2C(CC[C@H]2c2cnccn2)OC12CC(OCc1cccc(Cn3ccnn3)c1)C2` (stereo partly drawn) [Example 18.76, (5′S)-5′-(pyrazin-2-yl)-3-({3-[(1H-1,2,3-triazol-1-yl)methyl]phenyl}methoxy)tetrahydro-3′H-spiro[cyclobutane-1,2′-pyrrolo[2,1-b][1,3]oxazol]-3′-one]: the EC50 was determined as 168 nM.
As for `O=C1N2[C@@H](CC[C@H]2c2ccc(F)cn2)O[C@]12C[C@@H](OCc1ccccc1)C2` [Example 3.1, (1s,3R,5′S,7a′R)-3-(benzyloxy)-5′-(5-fluoropyridin-2-yl)tetrahydro-3′H-spiro[cyclobutane-1,2′-pyrrolo[2,1-b]oxazol]-3′-one], the 50% effective concentration (EC50) was determined as 108 nM.
Regarding `N#Cc1ccc2c(O[C@H]3C[C@@]4(C3)O[C@@H]3CC[C@@H](c5ccc(F)cc5)N3C4=O)ncnn12` [Example 11.3, 4-(((1r,3R,5′S,7a′R)-5′-(4-fluorophenyl)-3′-oxotetrahydro-3′H-spiro[cyclobutane-1,2′-pyrrolo[2,1-b]oxazol]-3-yl)oxy)pyrrolo[2,1-f][1,2,4]triazine-7-carbonitrile], the EC50 is 19 nM.
For `Cn1cc(C2CCC3OC4(CC(Oc5cc(C#N)ncn5)C4)C(=O)N32)cn1` (single isomer, unassigned) [Example 6.4, 6-((((1s or r),3R,5′(R or S),7a′R)-5′-(1-methyl-1H-pyrazol-4-yl)-3′-oxotetrahydro-3′H-spiro[cyclobutane-1,2′-pyrrolo[2,1-b]oxazol]-3-yl)oxy)pyrimidine-4-carbonitrile] the value was 2830 nM; for `O=C1N2[C@@H](CC[C@H]2c2cnccn2)OC12CC(OCc1ccccn1)C2` (stereo partly drawn) [Example 20.2, (5′S,7a′R)-5′-(pyrazin-2-yl)-3-[(pyridin-2-yl)methoxy]tetrahydro-3′H-spiro[cyclobutane-1,2′-pyrrolo[2,1-b][1,3]oxazol]-3′-one], 196 nM; for `O=C1N2[C@@H](CC[C@H]2c2cc(F)cc(F)c2)O[C@]12C[C@H](Oc1cccn3nnnc13)C2` [Example 9.25, (1r,3R,5′S,7a′R)-5′-(3,5-difluorophenyl)-3-[(tetrazolo[1,5-a]pyridin-8-yl)oxy]tetrahydro-3′H-spiro[cyclobutane-1,2′-pyrrolo[2,1-b][1,3]oxazol]-3′-one], 210 nM.
As to `O=C1N2[C@@H](CC[C@H]2c2ccccc2)OC12CC(Oc1ccnc(Cl)c1)C2` (stereo partly drawn) [Example 8.11, (5′S,7a′R)-3-[(2-chloropyridin-4-yl)oxy]-5′-phenyltetrahydro-3′H-spiro[cyclobutane-1,2′-pyrrolo[2,1-b][1,3]oxazol]-3′-onee], the EC50 was found to be 32 nM.
In the case of `O=C1N2[C@@H](CC[C@H]2c2cc(F)cc(F)c2)OC12CC(Oc1ccnc3c(F)cnn13)C2` (single isomer, unassigned) [Example 9.5] it was 328 nM; in that of `O=C1N2C(CC[C@H]2c2cnccn2)OC12CC(OCc1cccc3nccn13)C2` (stereo partly drawn) [Example 18.84, (5′S)-3-[(imidazo[1,2-a]pyridin-5-yl)methoxy]-5′-(pyrazin-2-yl)tetrahydro-3′H-spiro[cyclobutane-1,2′-pyrrolo[2,1-b][1,3]oxazol]-3′-one], 182 nM; in that of `N#CCCc1ccc(COC2CC3(C2)OC2CC[C@@H](c4cnccn4)N2C3=O)cc1` (stereo partly drawn) [Example 18.95, 3-[4-({[(5′S)-3′-oxo-5′-(pyrazin-2-yl)tetrahydro-3′H-spiro[cyclobutane-1,2′-pyrrolo[2,1-b][1,3]oxazol]-3-yl]oxy}methyl)phenyl]propanenitrile], 130 nM.
For `O=C1N2[C@@H](CC[C@H]2c2cnccn2)OC12CC(OCc1cccc(F)c1)C2` (single isomer, unassigned) [Example 22.8] the value was 35 nM; for `O=C1N2C(CC[C@H]2c2cnccn2)OC12CC(OCc1nnc(Cc3ccccc3)s1)C2` (stereo partly drawn) [Example 18.12, (5′S)-3-[(5-benzyl-1,3,4-thiadiazol-2-yl)methoxy]-5′-(pyrazin-2-yl)tetrahydro-3′H-spiro[cyclobutane-1,2′-pyrrolo[2,1-b][1,3]oxazol]-3′-one], 181 nM.
With `O=C1N2[C@@H](CC[C@H]2c2cc(F)cc(F)c2)O[C@]12C[C@H](Oc1cc(Cl)ncn1)C2` [Example 9.3, (5′S,7a′R)-3-((6-chloropyrimidin-4-yl)oxy)-5′-(3,5-difluorophenyl)tetrahydro-3′H-spiro[cyclobutane-1,2′-pyrrolo[2,1-b]oxazol]-3′-one], the EC50 was determined as 10 nM.
For the compound `O=C1N2[C@@H](CC[C@H]2c2ccccc2)OC12CC(Oc1cncc(Cl)c1)C2` (stereo partly drawn) [Example 8.17], the EC50 came to 35 nM.
For `O=C1N2[C@@H](CC[C@H]2c2cc(F)cc(F)c2)O[C@]12C[C@@H](Oc1cc(Cl)ncn1)C2` [Example 9.13, (1s,3S,5′S,7a′R)-3-((6-chloropyrimidin-4-yl)oxy)-5′-(3,5-difluorophenyl)tetrahydro-3′H-spiro[cyclobutane-1,2′-pyrrolo[2,1-b]oxazol]-3′-one], the EC50 came out at 108 nM.
For the compound `N#Cc1ccnc(O[C@H]2C[C@@]3(C2)O[C@@H]2CC[C@@H](c4ccccc4)N2C3=O)n1` [Example 9.19, 2-{[(1r,3R,5′S,7a′R)-3′-oxo-5′-phenyltetrahydro-3′H-spiro[cyclobutane-1,2′-pyrrolo[2,1-b][1,3]oxazol]-3-yl]oxy}pyrimidine-4-carbonitrile], the EC50 was determined as 64 nM.
In the case of `O=C1N2C(CC[C@H]2c2cnccn2)OC12CC(OCc1cnc3nccn3c1)C2` (stereo partly drawn) [Example 18.46, (5′S)-3-[(imidazo[1,2-a]pyrimidin-6-yl)methoxy]-5′-(pyrazin-2-yl)tetrahydro-3′H-spiro[cyclobutane-1,2′-pyrrolo[2,1-b][1,3]oxazol]-3′-one] it was 128 nM; in that of `C[C@@H](OC1CC2(C1)O[C@@H]1CC[C@@H](c3cc(F)cc(F)c3)N1C2=O)c1ccc(F)cn1` (single isomer, unassigned) [Example 12.2, (1R,3R,5′S,7a′R)-5′-(3,5-difluorophenyl)-3-((S or R)-1-(5-fluoropyridin-2-yl)ethoxy)tetrahydro-3′H-spiro[cyclobutene-1,2′-pyrrolo[2,1-b]oxazol]-3′-one], 155 nM.
For `O=C1N2C(CC[C@H]2c2cnccn2)OC12CC(OCc1ccc3nc(C(F)(F)F)cn3c1)C2` (stereo partly drawn) [Example 18.54, (5′S)-5′-(pyrazin-2-yl)-3-{[2-(trifluoromethyl)imidazo[1,2-a]pyridin-6-yl]methoxy}tetrahydro-3′H-spiro[cyclobutane-1,2′-pyrrolo[2,1-b][1,3]oxazol]-3′-one] the value was 159 nM; for `Cc1cc2c(O[C@H]3C[C@@]4(C3)O[C@@H]3CC[C@@H](c5cc(F)cc(F)c5)N3C4=O)ncnc2s1` [Example 9.33, (1r,3R,5′S,7a′R)-5′-(3,5-difluorophenyl)-3-[(6-methylthieno[2,3-d]pyrimidin-4-yl)oxy]tetrahydro-3′H-spiro[cyclobutane-1,2′-pyrrolo[2,1-b][1,3]oxazol]-3′-one], 8 nM.

Broadly, the EC50 is the concentration needed to bring the measured effect to its halfway point.
